Consider two molecules from the NIST ThermoML archive (doi:10.1016/j.jct.2006.12.012).

Numbers after ± are expanded uncertainties.

The conditions of data set [1]: 101 kPa, Liquid.
A short description of data set [2]: xn = mol fraction of the nth substance listed. The conditions noted are these: 101 kPa, Liquid, x2 = 0.

In the case of `C[S+](C)[O-]` [dimethyl sulfoxide], the mass density (commonly the mass of a sample divided by its volume) in data set [1] (298.15 K) came out at 1096.29 ± 0.28 kg/m3; in data set [1] (303.15 K) it was 1091.44 ± 0.28 kg/m3; in data set [1] (308.15 K), 1086.41 ± 0.27 kg/m3; in data set [1] (313.15 K), 1081.59 ± 0.26 kg/m3; in data set [1] (318.15 K) it was 1076.46 ± 0.25 kg/m3. The viscosity (in general, the internal friction of a fluid under shear) stood at 1.996 ± 0.024 mPa·s in data set [1] (298.15 K); 1.836 ± 0.022 mPa·s in data set [1] (303.15 K); 1.669 ± 0.02 mPa·s in data set [1] (308.15 K); 1.535 ± 0.019 mPa·s in data set [1] (313.15 K); 1.393 ± 0.017 mPa·s in data set [1] (318.15 K).
`O` [water] + C[S+](C)[O-]: the viscosity in data set [2] (298.15 K) came out at 0.8901 ± 0.012 mPa·s; in data set [2] (303.15 K), 0.7973 ± 0.011 mPa·s; in data set [2] (308.15 K), 0.7193 ± 0.0098 mPa·s; in data set [2] (313.15 K), 0.653 ± 0.009 mPa·s; in data set [2] (318.15 K), 0.5961 ± 0.0083 mPa·s.
